pIC50: −log10 of the molar value.
Key:
L929 = assay: Antiproliferative activity against mouse L929 cells after 72 hrs by MTT assay; details: L929, 72 h
A549 = assay: cells; details: Homo sapiens, A549, 72 h
Description: Antiproliferative activity against human A549 cells after 72 hrs by MTT assay

MCF7 = assay: Antiproliferative activity against human MCF7 cells after 72 hrs by MTT assay; type: functional, cell-based; details: MCF7, 72 h
HeLa = assay: Antiproliferative activity against human HeLa cells after 72 hrs by MTT assay; type: functional, cell-based

pIC50 (A549)	pIC50 (MCF7)	pIC50 (HeLa)	Structure (SMILES)	pIC50 (L929)
4.14	3.98	4.00	O=C1c2ccccc2C(=O)c2c1nc(C1CCC1)n2CCN1CCOCC1	4.07
4.07	3.75	3.84	CCc1nc2c(n1CCN1CCOCC1)C(=O)c1ccccc1C2=O	3.97
< 3.70	3.96	3.91	CC(C)c1ccc(CC(C)c2nc3c(n2CCN2CCOCC2)C(=O)c2ccccc2C3=O)cc1 (configuration not stated)	< 3.70
3.95	3.74	< 3.70	Cc1cc2ncn(CCN3CCOCC3)c2cc1C	3.73
4.11	4.27	4.10	O=C1c2ccccc2C(=O)c2c1nc(-c1cnccn1)n2CCN1CCOCC1	4.30
3.80	< 3.70	< 3.70	O=C1C(Cl)=C(NCCN2CCOCC2)C(=O)c2nccnc21	3.83
3.94	3.88	3.80	C[N+]1(CCn2c(-c3ccsc3)nc3c2C(=O)c2ccccc2C3=O)CCOCC1	3.88
5.37	4.97	5.08	COc1ccc(-c2nc3c(n2CCN2CCOCC2)C(=O)c2ccccc2C3=O)cc1Cl	4.17
< 3.70	< 3.70	< 3.70	c1c2ncn(CCN3CCOCC3)c2cc2ncn(CCN3CCOCC3)c12	< 3.70
4.61	4.15	4.21	O=C1c2ccccc2C(=O)c2c1nc(-c1ccccc1)n2CCN1CCOCC1	4.39
4.59	< 3.70	3.74	CC(C)Cc1nc2c(n1CCN1CCOCC1)C(=O)c1ccccc1C2=O	3.80
3.98	< 3.70	< 3.70	Cc1nc2c(n1CCN1CCOCC1)C(=O)c1ccccc1C2=O	3.93
4.49	3.91	3.90	CC(C)c1nc2c(n1CCN1CCOCC1)C(=O)c1ccccc1C2=O	4.10
3.97	3.95	3.78	CCCCc1nc2c(n1CCN1CCOCC1)C(=O)c1ccccc1C2=O	< 3.70
4.12	< 3.70	< 3.70	O=C1c2ccccc2C(=O)c2c1nc(C1CCCCC1)n2CCN1CCOCC1	4.10
3.78	3.78	3.78	C[N+]1(CCn2c(-c3cccc(F)c3)nc3c2C(=O)c2ccccc2C3=O)CCOCC1	< 3.70
3.92	3.85	3.82	O=C1c2ccccc2C(=O)c2c1nc(-c1ccncc1)n2CCN1CCOCC1	3.94
4.04	3.86	3.76	O=C1c2ccccc2C(=O)c2c1nc(-c1cccs1)n2CCN1CCOCC1	3.75
4.15	3.97	4.00	CC(C)c1ccc(-c2nc3c(n2CCN2CCOCC2)C(=O)c2ccccc2C3=O)cc1	4.14
4.44	4.19	4.21	O=C1c2ccccc2C(=O)c2c1nc(C1CC1)n2CCN1CCOCC1	4.40
3.85	3.85	3.97	C[N+]1(CCn2c(-c3ccccn3)nc3c2C(=O)c2ccccc2C3=O)CCOCC1	3.97
3.76	3.91	< 3.70	CCC(C)c1nc2c(n1CCN1CCOCC1)C(=O)c1ccccc1C2=O (configuration not stated)	4.00

pIC50 (A549)	pIC50 (MCF7)	pIC50 (HeLa)	Structure (SMILES)	pIC50 (L929)
4.43	4.02	4.02	CCCc1nc2c(n1CCN1CCOCC1)C(=O)c1ccccc1C2=O	4.10
4.48	3.87	3.73	O=C1c2ccccc2C(=O)c2c1nc(-c1cccc(C(F)(F)F)c1)n2CCN1CCOCC1	4.14
4.11	4.23	4.09	O=C1c2ccccc2C(=O)c2c1nc(/C=C/c1ccccc1)n2CCN1CCOCC1	3.92
4.03	3.86	3.94	C[N+]1(CCn2c(C(F)(F)F)nc3c2C(=O)c2ccccc2C3=O)CCOCC1	< 3.70
4.34	3.85	3.92	O=C1c2ccccc2C(=O)c2c1nc(-c1ccc(Cl)c(C(F)(F)F)c1)n2CCN1CCOCC1	3.95
4.49	4.42	3.98	O=C1c2ccccc2C(=O)c2c1nc(-c1ccccn1)n2CCN1CCOCC1	3.93
4.63	3.94	3.92	Cc1ccccc1-c1nc2c(n1CCN1CCOCC1)C(=O)c1ccccc1C2=O	4.10
4.51	4.32	4.28	O=C1c2ccccc2C(=O)c2c1nc(-c1ccc(F)c(Cl)c1)n2CCN1CCOCC1	4.35
4.20	4.41	4.10	O=C1c2ccccc2C(=O)c2c1nc(-c1ccc(-c3nc4c(n3CCN3CCOCC3)C(=O)c3ccccc3C4=O)cc1)n2CCN1CCOCC1	3.92
3.76	< 3.70	4.01	COc1ccc(-c2nc3c(n2CC[N+]2(C)CCOCC2)C(=O)c2ccccc2C3=O)cc1Cl	< 3.70
4.14	3.78	4.05	Cc1ccc(CCc2nc3c(n2CCN2CCOCC2)C(=O)c2ccccc2C3=O)o1	4.02
4.66	3.82	4.05	CC(C)(C)c1nc2c(n1CCN1CCOCC1)C(=O)c1ccccc1C2=O	4.07
4.68	3.94	3.87	O=C1c2ccccc2C(=O)c2c1nc(-c1ccsc1)n2CCN1CCOCC1	3.91
4.78	4.52	4.72	O=C1c2ccccc2C(=O)c2c1nc(-c1cccc3ccccc13)n2CCN1CCOCC1	4.39
3.83	3.77	3.72	O=C1c2ccccc2C(=O)c2c1nc(-c1ccco1)n2CCN1CCOCC1	3.76
4.80	4.75	4.82	O=C1c2ccccc2C(=O)c2c1nc(C(F)(F)F)n2CCN1CCOCC1	4.79
4.42	3.78	3.96	O=C1c2ccccc2C(=O)c2c1nc(-c1cccnc1)n2CCN1CCOCC1	4.35
4.07	4.06	3.95	COc1ccc(-c2nc3c(n2CCN2CCOCC2)C(=O)c2ccccc2C3=O)cc1	4.00
4.06	3.97	3.88	O=C1c2ccccc2C(=O)c2c1nc(-c1cccc(F)c1)n2CCN1CCOCC1	3.88
< 3.70	3.74	< 3.70	C[N+]1(CCn2c(-c3ccccc3)nc3c2C(=O)c2ccccc2C3=O)CCOCC1	< 3.70
4.24	3.97	4.02	CCC(CC)c1nc2c(n1CCN1CCOCC1)C(=O)c1ccccc1C2=O	4.10

Reference: ChEMBL document CHEMBL4118258, “2-Substituted-1-(2-morpholinoethyl)-1H-naphtho[2,3-d]imidazole-4,9-diones: Design, synthesis and antiproliferative activity” (Bioorg Med Chem Lett, 2018)
